Experimental data: US11554151B2, “Composition containing Perilla frutescens fermented extract for prevention, alleviation, or treatment of sleep disorder” (AJOU UNIVERSITY INDUSTRY-ACADEMIC COOPERATION FOUNDATION, priority 2017, dated 2023)

Tested on: ICR mice
Test: Pentobarbital-induced sleep test (sleep latency and total sleeping time)
Type: in vivo
Details: Example 2-1; positive control, 1 mg/kg oral, 30 min before pentobarbital 45 mg/kg i.p.
Description: The sleep improvement effects of the Perilla frutescens fermented extract and conventionally sold sedatives were intended to be confirmed from comparison of sleep latency and total sleeping time.
Specifically, 0.9% physiological saline, 10 mg/kg of the Perilla frutescens extract (Perilla-W) or fermented extract thereof (Perilla-B) prepared in [Example 1], and 1 mg/kg of diazepam (Myung In Pharm. Co., Ltd.) were each orally administered to ICR mice (OrientBio). 30 minutes after the administration of the test materials, 45 mg/kg of a nerve stabilizer pentobarbital (HANLIM PHARM. Co., Ltd.) was intraperitoneally administered to induce sleep. After the administration of pentobarbital, the time required to go into deep sleep (sleep latency) and the total sleep maintenance time (total sleeping time) were measured for each test material administration group. Physiological saline and diazepam were used as a control and a positive control, respectively.
Specifically, sleep latency and total sleeping time ere measured in the same manner as in Example <2-1> using 0.9% physiological saline and 10 mg/kg of the Perilla frutescens extract (Perilla-W) or fermented extract thereof (Perilla-B, Perilla-L, and Perilla-S) prepared in [Example 1].

SMILES: CN1C(=O)CN=C(c2ccccc2)c2cc(Cl)ccc21 [diazepam]
- sleep latency: 220 s
